Experimental data published in patent US10889812B2, “Short non-coding protein regulatory RNAs (sprRNAs) and methods of use” (University of Maryland, Baltimore, priority 2014, dated 2021).
Entries after “also recorded” stand apart in the source; their conditions may differ.

Columns and labels:
HBE4 cells = test: Wound healing assay (gap closure); type: cell-based, human; conditions: HBE4, vs Scr control
Source text: (§1) For cell migration, we used two complementary assays. […] To compensate potential differences in the cell numbers among different treatment conditions, we seeded 10% less cells for Ant-163 treated HBE4 cells and 10% more cells for piR-L-163 transfected H1792 cells.
(§2) Two complimentary methods were used. For quantitative fluorescent dye assay, Innocyto™ Cell migration Assay kit (EMD Millipore) was used. Briefly, 24 hrs after treatment, 1×10^5 cells (10% less for Ant-163 treated cells or 10% more for piR-L-163 treated cells) were loaded to the upper chamber with growth factor-free Keratinocyte-SFM for (HBE4 cells) or serum-free DMEM (for H1792 cells) with the bottom chamber exposed to completed culture medium. Negative controls were used with 3 μM Latrunculin A. After 12 hrs incubation, fluorescence was measured using a fluorescence plate reader 485 nm (excitation) and 520 nm (emission) according to the manufacturer's instruction. For wound-healing assay, cells (24 hrs after treatment with different DNA or RNA oligonucleotides) were grown to confluence followed by scratching with a pipette tip to create a gap. The floating cells were removed and the gaps were monitored/photographed every 12 hrs.

p-ERM [1] = test: p-ERM protein levels in HBE4 cells (Western blot); type: cell-based, human; conditions: following treatment
p-ERM [2] = test: IP with anti-p-ERM antibody followed by RT-PCR in transfected H1792 cells; type: binding, human; conditions: H1792 cells transfected with the oligonucleotide
Source text: We next wanted to determine the site critical for piR-L-163's binding toP-ERM. We first analyzed the piR-L-163 sequence and identified a candidate motif “UUNNUUUNNUU” (SEQ ID NO:495) with potentially critical for the binding (FIG. 5a). We then generated 5 mutant forms of piR-L-163 named as M1-M5 (FIG. 5b and Table 3) to test their potential impact on the p-ERM binding. For this experiment, we used H1792 cells because these cells expressed extremely low level of endogenous piR-L-163 but considerable amount of p-ERM (FIG. 5c and FIG. 11a). H1792 cells were transfected with Scr (control), Ant-163, piR-L-163 (WT), or Mutant 1 (M1) to Mutant 5 (M5) RNA oligonucletides, respectively. An anti-p-ERM antibody was used for IP followed by RT-PCR using primers specific for Scr, Ant-163, piR-L-163, or M1-M5 (Table 6) to detect the corresponding oligonucleotides.
To amplify sncRNAs, we added an adaptor to the 3′ end, a process including adaptor ligation, RT and PCR (de Vanssay, A. et al. Paramutation in Drosophila linked to emergence of a piRNA-producing locus. Nature 490, 112-115 (2012); Li, Z. et al. Characterization of viral and human RNAs smaller than canonical MicroRNAs. J Virol. 83, 12751-12758 (2009)). For adaptor ligation, the adaptor /5′rapp/CTGTAGGCACCATCAAT/3′ddc/ (SEQ ID NO:499) with both 5′ and 3′ modification was used. Briefly, mixed 1 μl (10 pmol, ˜55 ng) of RNA 3′ adaptor and 4.4 μl (˜100 ng) of purified sncRNAs in a 1.5 ml EP tube; Incubated at 72° C. for 2 min, then placed on ice immediately and kept it on ice for at least 1 min; Added the following reagents (New England Biolabs) to the above tube: 0.8 μl 10×RNA ligase buffer, 1 μl RNase inhibitor, and 1 μl single strand RNA ligase; Mixed it well and incubated at 37° C. for 1 hr, then terminated the reaction at 65° C. for 15 min. For RT, SuperScript™ III First-Strand Synthesis System (Invitrogen) was used according to the manufacturer's instructions with gene specific primer (5′-[…]-3′) (SEQ ID NO:500). For PCR, a common reverse primer (5′-[…]-3′) (SEQ ID NO:501) and primers specific for individual sncRNAs (Table 6). Amplification conditions were denaturation at 95° C. for 30 s (5 min for the first cycle), annealing at 60° C. for 20 s and extension at 72° C. for 20 s (2 min for the last cycle) for 25 cycles.
For IP using anti-human Moesin or p-ERM antibodies, anti-Moesin (Clone Q480, Catalog No. 3150, Cell Signaling) or anti-p-ERM (Clone 41A3, Catalog No. 3149, Cell Signaling) antibodies were used and a rabbit IgG was used as a control. Briefly, Saturated protein G agarose beads (Sigma-Aldrich) with rabbit IgG, anti-Moesin or anti-p-ERM antibodies, respectively (1 μg antibody was used for 4 μl agarose beads) at 4° C. for 3 hrs, centrifuged at 2,200×g for 5 min, and discarded the upper aqueous phase; (2) Protein extracts prepared from cells using lysis buffer (20 mM Tris-cl, pH7.6, 150 mM NaCl, 20 mM KCl, 1.5 mM MgCl2, 0.5% NP-40, 0.5 mM PMSF) were pre-cleared using protein G agarose at 4° C. for 2 hrs, centrifuged at 2,200×g for 5 min, and transferred the upper aqueous phase to above tubes with agarose beads saturated with antibodies, respectively; Kept the tubes rotating overnight at 4° C., centrifuged at 2,200×g for 5 min, and washed the beads with lysis buffer twice; Extracted total RNAs from beads using Trizol Reagent (Life Technologies); Amplification of piR-L-163 or its mutants was performed according to the steps described in the “RT-PCR” section.

H1792 cells [3] = test: Trans-well invasion assay; type: cell-based, human; conditions: H1792, vs control RNA oligonucleotides
Source text: We then tested the potential impact of piR-L-163 in cell migration and invasion, two of the properties involving ERM's biological functions (Fehon, R. G., Mclatchey, A. I. & Bretscher, A. Organizing the cell cortex: the role of ERM proteins. Nat Rev Mol Cell Biol. 11, 276-287 (2010); Hunter, K. W. Ezrin, a key component in tumor metastasis. Trends Mol. Med. 10, 201-204 (2004); Luo, Y. et al. Recognition of CD146 as an ERM-binding protein offers novel mechanisms for melanoma cell migration. Oncogene 31, 306-321 (2013); Clucas, J. & Valderrama, F. ERM proteins in cancer progression. J Cell Sci. 128, 1253 (2015)).
Briefly, 24 hrs after transfection, 6×10^4 cells were placed in the upper chamber of Matrigel Invasion Chambers (BD Bioscience) with growth factor-free Keratinocyte-SFM and the bottom chamber were exposed to Keratinocyte-SFM medium supplemented with L-Glutamine, prequalified human recombinant EGF 1-53 and BPE. Invading cells were evaluated after 12 hrs according to the manufacturer's instruction. The numbers of invading cells were adjusted 15% downwards for Ant-163 treated cells or 15% upwards for piR-L-163 treated cells to compensate the differences for the proliferation rates.

F-actin and EBP50 = test: Binding of p-ERM/moesin with F-actin and EBP50 in IP products of H522 cells; type: cell-based, human; conditions: together with Moesin-WT
H1792 cells [4] = test: Wound healing assay (gap closure); type: cell-based, human; conditions: H1792, vs Scr control, Ant-163 or a mutant piR-L-163
Source text: as §1, §2

Row | Substance | gap closure (HBE4 cells) | p-ERM protein levels (p-ERM [1]) | oligonucleotide detected by RT-PCR in anti-p-ERM IP products (binding to p-ERM) (p-ERM [2]) | invasion capability (H1792 cells [3]) | binding of moesin with F-actin and EBP50 (F-actin and EBP50) | gap closure (H1792 cells [4])
1 | Ant-163: DNA sequence antisense to piR-L-163, SEQ ID NO:496, 5′-GGTCAGAGAATCAAAGTAACATCATGATAT-3′ (DNA, backbone and methylation of C not given here) | faster gap closure | not significantly changed | no RT-PCR band could be detected | no impact | – | –
2 | piR-L-163: sprRNA, SEQ ID NO:282; piRNA-L aligned to intron 10 of LAMC2; AUAUCAUGAUGUUACUUUGAUUCUCUGACC with 3′ 2′-O-methylation (listed as RNA, chemistry not fully specified; listed as Homo sapiens) | – | – | strong RT-PCR band was detected | significantly decreased invasion capability; also recorded: significantly reduced the number of invading cells | enhanced binding with F-actin and EBP50 | slower gap closure
